Patent publication US20240216312A1, “PPAR-AGONISTS FOR USE IN THE TREATMENT OF LIVER FAILURE” (Genfit, priority 2021, published 2024)
Like-named read-outs stand apart in the source and are kept apart here.

Tests used:
THP1 macrophages [1] = assay: LPS (Klebsiella pneumoniae) activation of THP1 macrophages, MCP1 and TNFα secretion (HTRF); type: cell-based, human
Protocol: (§1) In order to test the efficacy of the compounds on macrophage activation and pro-inflammatory cytokine production, 2.5×10^4 THP-1 cells were cultured in a 384-well plate and treated with 100 ng/mL PMA (#P8139, Sigma) for 24 h to induce differentiation into macrophages.
Then, medium was removed and FBS-deprived medium containing 1 or 10 μM compound was added for 24 h. Finally, THP1 macrophages were stimulated for 6 h with 100 ng/mL LPS (Klebsiella pneumoniae, #L4268, Sigma-Aldrich).
(§2) Monocyte chemoattractant protein 1 (MCP1) and Tumor necrosis α (TNFα) were measured in cell supernatants by Homogeneous Time Resolved Fluorescence (HTRF, #62[…] for TNFα, and 62HCCL2PEG for MCP1, Cisbio). Fluorescence was measured with Infinite 500 (#30019337, Tecan) to determine the concentration of cytokines.
In order to evaluate the effect of the compounds according to the invention on LPS-induced cytokines production by macrophages, the percentage of inhibition over the vehicle condition were calculated for each compound at 1 and 10 μM.

[2] = tested on: LPS-induced endotoxemia, Sprague Dawley rats; assay: LPS-induced endotoxemia in rats, serum IL6 and IL1β (ELISA); type: in vivo; conditions: rat, 3 mg/kg/day oral 3 days before LPS 1 mg/kg i.p., 3 h after LPS
Protocol: To evaluate the efficacy of the compounds to reduce the cytokine production in response to LPS-induced endotoxemia, male Sprague Dawley rats of 250-275 g from Janvier Labs (France) received a single intraperitoneal injection of 1 mg/kg LPS (Escherichia coli 0111:B4, #L2630, Sigma).
Cpd.1 (3 mg/kg/day) or vehicle (Labrafil M 1944 CS, #3063, Gattefossé) was administered by oral gavage during the 3 days before LPS injection. Rats were euthanized by cervical dislocation 3 hours after treatment. Blood samples were obtained from retro-orbital sinus puncture on animals slightly asleep with isoflurane (Isoflurin 1000 mg/g, GTIN 03760087152678, Axience) just before sacrifice.
The serum concentrations of interleukin-6 (IL6) and interleukin-1β (L1β) were determined by ELISA (SR6000B and SRLB00, respectively, R&D Systems).

[3] = tested on: LPS-induced endotoxemia, Sprague Dawley rats; assay: LPS-induced endotoxemia in rats, hepatic markers and serum TNFα; type: in vivo; conditions: rat, 3 mg/kg/day oral 3 days before LPS, 3 h after LPS
[4] = tested on: CLP induced polymicrobial sepsis, C57BL6J mice; assay: Cecal ligation and puncture (CLP) sepsis model in mice, survival; type: in vivo; conditions: mouse CLP
Protocol: This study aims to investigate the efficacy of Cpd.1 in cecal ligation and puncture (CLP) model in C57BL6J (BL6) male mice. The efficacy of the test compound was evaluated based on the survival rate of the animals within the study period.
C57BL6J male mice (supplier Janvier—France) at 9 weeks of age and weighing 23-25 g on arrival were anesthetized with 250 μL of xylazine/ketamine solution (20 mg/100 g body weight) by intraperitoneal route. A 1-1.5 cm abdominal midline incision was made, and the caecum was located and tightly ligated at half the distance between distal pole and the base of the cecum with 4-0 silk suture (mild grade). The caecum was punctured through-and-through once with a 21-gauge needle from mesenteric toward antimesenteric direction after medium ligation. A small amount of stool was extruded to ensure that the wounds were patent. Then the cecum was replaced in its original position within the abdomen, which was closed with sutures and wound clips. Mice were followed for body weight evolution and mortality rate until […].
Cpd.1 or vehicle (Labrafil M 1944 CS, #3063, Gattefossé) was administered at 0.3 mg/kg, p.o. for three days before CLP surgery. The day of CLP (day 0), Cpd.1 was administrated 1 h before surgery and pursued daily until day 6. Experiment was terminated at day 7. […]
Body weight and survival rate were measured for 7 days.

THP1 macrophages [5] = assay: LPS (E. coli) activation of THP1 differentiated macrophages, TNFα and MCP1 secretion; type: cell-based, human; conditions: compound 24 h, then 100 ng/mL LPS E. coli 6 h
Protocol: as §1
Then, medium was removed and FBS-deprived medium containing the compound of formula (I) was added for 24 h. Finally, THP1 macrophages were stimulated with 100 ng/mL LPS (E. coli 055:B5, #L4005, Sigma) for 6 h.

[6] = tested on: LPS/GaIN acute liver failure, C57BL/6J mice; assay: LPS/GalN model of acute liver failure in mice, hepatic gene expression, serum cytokines and albumin; type: in vivo, mouse; conditions: 3 mg/kg/day oral 3 days before LPS/GaIN, 4 h after injection
THP-1 cells = assay: PMA-induced differentiation of THP-1 monocytes into macrophages, TNFα and MCP1 secretion (HTRF); type: cell-based; conditions: Homo sapiens, PMA-stimulated THP1 monocytes, 24 h
Protocol: In order to test the efficacy of the compounds to inhibit the activation of the immune system, we used the human monocytic cell line THP-1 (Sigma). THP1 monocytes were cultured in RPMI 1640 with L-glutamine medium (#10-040-CV, Corning) supplemented with 10% fetal bovine serum (FBS, #10270, Gibco), 1% penicillin/streptomycin (#15140, Gibco) and 25 mM Hepes (H0887, Sigma) in a 5% C02 incubator at 37° C.
To evaluate the effect of the compounds on monocyte differentiation, 2.5×10^4 THP-1 cells were cultured for 24 h in a 384-well plate in FBS-deprived culture medium containing Cpd.1 in dose ranges, as well as 5 or 100 ng/mL phorbol 12-myristate 13-acetate (PMA, #P8139, Sigma), as indicated, to induce differentiation into macrophages.
as §2, with “Tumor necrosis α (TNFα) and monocyte” for “Monocyte”, “(MCP1)” for “(MCP1) and Tumor necrosis α (TNFα)”

HepG2 cells = assay: Staurosporin-induced apoptosis in HepG2 cells, caspase 3/7 activity; type: cell-based, human; conditions: 16 h pre-treatment, then 10 μM staurosporin 4 h
Protocol: In order to evaluate the effect of the compounds on human hepatocytes that undergo a cellular stress induced by staurosporin, the human hepatoblastoma-derived HepG2 cell line (ECACC, #85011430, Sigma-Aldrich) was cultured in high-glucose DMEM medium (#41965, Gibco, France) supplemented with 10% of fetal bovine serum (FBS, #10270, Gibco), 1% penicillin/streptomycin (#15140, Gibco), 1% sodium pyruvate (#11360, Gibco) and 1% MEM non-essential amino acids (#11140, Gibco) in a 5% CO2 incubator at 37° C.
To evaluate caspase 3/7 activity, which is a surrogate marker of apoptosis, 1.5×10^4 cells were plated in a 384-well plate (#781080, Greiner, France). After cell adherence (8 hours), cells were serum starved for 16 h in the presence of 0.3 μM of compounds or vehicle. Cpd.1 was also used at 3 and 10 μM. Thereafter, cells were treated with 10 μM staurosporin (#569397, Sigma-Aldrich, Germany) supplemented with compound for additional 4 hours before cell lysis and caspase activity measurement.
Caspase 3/7 activity was measured using Caspase Glow™ 3/7 assay (#G8093, Promega, USA). Luminescence was measured using a Spark microplate reader (#30086376, Tecan, USA). The amount of luminescence (RLU) directly correlates with caspase 3/7 activity.

## COC(CCc1cc(C)c(OC(C)(C)C(=O)O)c(C)c1)c1ccc(OC(F)(F)F)cc1 (stereo not shown) [Cpd. 1, 2-[4-(3-methoxy-3-(4-(trifluoromethoxy)phenyl)propyl)-2,6-dimethylphenoxy]-2-methylpropanoic acid]
THP1 macrophages [1]; Homo sapiens, THP-1, 1 μM, 24 h, then LPS Klebsiella 6 h, read-out: % inhibition of MCP1 secretion over mean Veh.
  inhibition at 1 µM: 108%
THP1 macrophages [1]; Homo sapiens, THP-1, 10 μM, 24 h, then LPS Klebsiella 6 h, read-out: % inhibition of MCP1 secretion over mean Veh.
  inhibition at 10 µM: 120%
THP1 macrophages [1]; THP1 macrophages, in words, concentration not given
  production of MCP1 induced by LPS Klebsiella: overpassing the untreated condition
[2]
  reduction of serum IL1β level: 31%
  reduction of serum IL6 level: 40%
[3]
  serum total bilirubin level compared to vehicle: completely restored
[4]; 0.3 mg/kg p.o.
  side effects after each administration: No side effect
[4]; 0.3 mg/kg p.o. from 3 days before surgery, daily, Day 7
  increase in survival rate compared to CLP+Vehicle group: 47%
THP1 macrophages [5]
  reduction of TNFα secretion: potent at reducing
THP1 macrophages [5]; all doses tested
  reduction of MCP1 secretion: overpassing the untreated condition
[6]; mouse liver
  decrease of hepatic Ccl2 mRNA expression: 52%
  decrease of hepatic IL1b mRNA expression: 46%
  decrease of hepatic IL6 mRNA expression: 52%
  decrease of hepatic TNF mRNA expression: 40%
  reduction of hepatic Cd68 mRNA expression: 41%
[6]; mouse serum
  reduction of circulating CCL2 level compared to vehicle: 59%
  reduction of circulating IL6 level compared to vehicle: 62%
  reduction of circulating TNFα level compared to vehicle: 51%
THP-1 cells; read-out: inhibition of MCP1 content in the supernatant
  inhibition at 1 µM: ~50%
THP-1 cells; read-out: inhibition of TNFα content in the supernatant
  inhibition at 1 µM: ~50%
HepG2 cells; 0.3 μM to 10 μM
  reduction of staurosporin-induced caspase activity: dose-dependent manner
HepG2 cells; Homo sapiens, HepG2, 0.3 μM, read-out: % Inhibition of caspase activity over mean Veh.
  inhibition at 0.3 µM: 26%
